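Growth conditions: 96-well plates. Treatment: test compound, 48 hours, 5 concentrations. Analysis: linear interpolation between bracketing concentrations; unreached endpoints set to highest concentration. Here, GI50 denotes the concentration required for 50% inhibition of growth. At the TGI there is no net growth.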
Assays:
Test in all cases: NCI tumour cell line growth inhibition, 48 h
NCI/ADR-RES ovarian = system: NCI/ADR-RES ovarian
MOLT-4 leukemia = system: MOLT-4 leukemia
HOP-92 NSCLC = system: HOP-92 NSCLC
HOP-62 NSCLC = system: HOP-62 NSCLC
UO-31 renal = system: UO-31 renal
SW-620 colon = system: SW-620 colon
SK-MEL-5 melanoma = system: SK-MEL-5 melanoma
SR leukemia = system: SR leukemia
OVCAR-3 ovarian = system: OVCAR-3 ovarian
OVCAR-5 ovarian = system: OVCAR-5 ovarian
MDA-MB-435 = system: MDA-MB-435
OVCAR-4 ovarian = system: OVCAR-4 ovarian
U251 CNS = system: U251 CNS
HT29 colon = system: HT29 colon
A549 NSCLC = system: A549 NSCLC
LOX IMVI melanoma = system: LOX IMVI melanoma
HL-60(TB) leukemia = system: HL-60(TB) leukemia
SN12C renal = system: SN12C renal
ACHN renal = system: ACHN renal
TK-10 renal = system: TK-10 renal
NCI-H460 lung = system: NCI-H460 lung
NCI-H23 lung = system: NCI-H23 lung
SK-MEL-28 melanoma = system: SK-MEL-28 melanoma
DU-145 prostate = system: DU-145 prostate
UACC-62 melanoma = system: UACC-62 melanoma
KM12 colon = system: KM12 colon
OVCAR-8 ovarian = system: OVCAR-8 ovarian
PC-3 prostate = system: PC-3 prostate
A498 renal = system: A498 renal
SF-295 CNS = system: SF-295 CNS
HS 578T breast = system: HS 578T breast
HCC-2998 colon = system: HCC-2998 colon
SK-MEL-2 melanoma = system: SK-MEL-2 melanoma
EKVX NSCLC = system: EKVX NSCLC
SK-OV-3 ovarian = system: SK-OV-3 ovarian
786-0 renal = system: 786-0 renal
IGROV1 ovarian = system: IGROV1 ovarian
SF-539 CNS = system: SF-539 CNS
NCI-H522 lung = system: NCI-H522 lung
T-47D breast = system: T-47D breast
COLO 205 colon = system: COLO 205 colon
K-562 leukemia = system: K-562 leukemia
UACC-257 melanoma = system: UACC-257 melanoma
BT-549 breast = system: BT-549 breast
MDA-MB-231 breast = system: MDA-MB-231 breast
CCRF-CEM leukemia = system: CCRF-CEM leukemia
M14 melanoma = system: M14 melanoma
MALME-3M melanoma = system: MALME-3M melanoma
SNB-19 CNS = system: SNB-19 CNS
RPMI-8226 leukemia = system: RPMI-8226 leukemia
SNB-75 CNS = system: SNB-75 CNS
HCT-15 colon = system: HCT-15 colon
RXF 393 renal = system: RXF 393 renal
NCI-H226 lung = system: NCI-H226 lung
SF-268 CNS = system: SF-268 CNS

In the case of C=C1C(=O)O[C@H]2[C@H]1CC/C(COC(=O)CCCCCCC(=O)OC/C1=C/CC[C@@]3(C)O[C@H]3[C@H]3OC(=O)C(=C)[C@@H]3CC1)=C\CC[C@@]1(C)O[C@@H]21, the GI50 (NCI/ADR-RES ovarian) is reported as 4.26 µM, the TGI (NCI/ADR-RES ovarian) is reported as 29.6 µM and the GI50 (MOLT-4 leukemia) is reported as 2.4 µM. For the same compound, the TGI (MOLT-4 leukemia) was 9.93 µM, the GI50 (HOP-92 NSCLC) was 2.24 µM and the TGI (HOP-92 NSCLC) was 8.14 µM. The GI50 (HOP-62 NSCLC) was 6.69 µM, the TGI (HOP-62 NSCLC) was 22.9 µM and the GI50 (UO-31 renal) was 1.58 µM. For the same compound, the TGI (UO-31 renal) was 4.37 µM, the GI50 (SW-620 colon) was 2.18 µM and the TGI (SW-620 colon) was 6.24 µM. The GI50 (SK-MEL-5 melanoma) was 4.83 µM, the TGI (SK-MEL-5 melanoma) was 16.6 µM and the GI50 (SR leukemia) was 1.51 µM. It also gave a TGI (SR leukemia) of 9.88 µM, a GI50 (OVCAR-3 ovarian) of 2.55 µM and a TGI (OVCAR-3 ovarian) of 10 µM. For the same compound, the GI50 (OVCAR-5 ovarian) was 2.54 µM, the TGI (OVCAR-5 ovarian) was 7.5 µM and the GI50 (MDA-MB-435) was 3.33 µM. For the same compound, the TGI (MDA-MB-435) was 14.2 µM, the GI50 (OVCAR-4 ovarian) was 3.23 µM and the TGI (OVCAR-4 ovarian) was 13.8 µM. It also gave a GI50 (U251 CNS) of 2.96 µM, a TGI (U251 CNS) of 10.3 µM and a GI50 (HT29 colon) of 2.41 µM. It also gave a TGI (HT29 colon) of 4.9 µM, a GI50 (A549 NSCLC) of 16.9 µM and a TGI (A549 NSCLC) of 45 µM. It also gave a GI50 (LOX IMVI melanoma) of 1.58 µM, a TGI (LOX IMVI melanoma) of 3.12 µM and a GI50 (HL-60(TB) leukemia) of 1.5 µM. The TGI (HL-60(TB) leukemia) was 4.23 µM, the GI50 (SN12C renal) was 2.9 µM and the TGI (SN12C renal) was 11.2 µM. The GI50 (ACHN renal) was 2.56 µM, the TGI (ACHN renal) was 8.98 µM and the GI50 (TK-10 renal) was 3.46 µM. For the same compound, the TGI (TK-10 renal) was 9.42 µM, the GI50 (NCI-H460 lung) was 5.36 µM and the TGI (NCI-H460 lung) was 23.9 µM. For the same compound, the GI50 (NCI-H23 lung) was 2.94 µM, the TGI (NCI-H23 lung) was 12.6 µM and the GI50 (SK-MEL-28 melanoma) was 2.95 µM. For the same compound, the TGI (SK-MEL-28 melanoma) was 10.2 µM, the GI50 (DU-145 prostate) was 5.59 µM and the TGI (DU-145 prostate) was 17.7 µM. It also gave a GI50 (UACC-62 melanoma) of 5.47 µM, a TGI (UACC-62 melanoma) of 20.2 µM and a GI50 (KM12 colon) of 3.84 µM. It also gave a TGI (KM12 colon) of 16.9 µM, a GI50 (OVCAR-8 ovarian) of 3 µM and a TGI (OVCAR-8 ovarian) of 10.3 µM. The GI50 (PC-3 prostate) was 2.74 µM, the TGI (PC-3 prostate) was 7.98 µM and the GI50 (A498 renal) was 15.3 µM. It also gave a TGI (A498 renal) of 30.5 µM, a GI50 (SF-295 CNS) of 10.8 µM and a TGI (SF-295 CNS) of 24.7 µM. The GI50 (HS 578T breast) was 2.3 µM, the TGI (HS 578T breast) was 8.7 µM and the GI50 (HCC-2998 colon) was 3.76 µM. The TGI (HCC-2998 colon) was 12.5 µM, the GI50 (SK-MEL-2 melanoma) was 12.6 µM and the TGI (SK-MEL-2 melanoma) was 29.7 µM. The GI50 (EKVX NSCLC) was 3.66 µM, the TGI (EKVX NSCLC) was 16.1 µM and the GI50 (SK-OV-3 ovarian) was 35.9 µM. For the same compound, the TGI (SK-OV-3 ovarian) was over 100 µM, the GI50 (786-0 renal) was 1.84 µM and the TGI (786-0 renal) was 3.87 µM. It also gave a GI50 (IGROV1 ovarian) of 2.91 µM, a TGI (IGROV1 ovarian) of 10.5 µM and a GI50 (SF-539 CNS) of 2.52 µM. For the same compound, the TGI (SF-539 CNS) was 7 µM, the GI50 (NCI-H522 lung) was 1.92 µM and the TGI (NCI-H522 lung) was 3.45 µM. It also gave a GI50 (T-47D breast) of 3.48 µM, a TGI (T-47D breast) of 10.8 µM and a GI50 (COLO 205 colon) of 2 µM. It also gave a TGI (COLO 205 colon) of 4.26 µM, a GI50 (K-562 leukemia) of 2.73 µM and a TGI (K-562 leukemia) of 11.1 µM. The GI50 (UACC-257 melanoma) was 2.1 µM, the TGI (UACC-257 melanoma) was 6.22 µM and the GI50 (BT-549 breast) was 1.81 µM. It also gave a TGI (BT-549 breast) of 4.33 µM, a GI50 (MDA-MB-231 breast) of 2.28 µM and a TGI (MDA-MB-231 breast) of 5.94 µM. The GI50 (CCRF-CEM leukemia) was 1.11 µM, the TGI (CCRF-CEM leukemia) was 5.89 µM and the GI50 (M14 melanoma) was 2.48 µM. It also gave a TGI (M14 melanoma) of 8.55 µM, a GI50 (MALME-3M melanoma) of 2.55 µM and a TGI (MALME-3M melanoma) of 7.05 µM. For the same compound, the GI50 (SNB-19 CNS) was 7.17 µM, the TGI (SNB-19 CNS) was 24.1 µM and the GI50 (RPMI-8226 leukemia) was 2.27 µM. The TGI (RPMI-8226 leukemia) was 6.42 µM, the GI50 (SNB-75 CNS) was 12.9 µM and the TGI (SNB-75 CNS) was 36.6 µM. It also gave a GI50 (HCT-15 colon) of 2.63 µM, a TGI (HCT-15 colon) of 10.1 µM and a GI50 (RXF 393 renal) of 1.61 µM. For the same compound, the TGI (RXF 393 renal) was 3.33 µM, the GI50 (NCI-H226 lung) was 2.39 µM and the TGI (NCI-H226 lung) was 6.65 µM. The GI50 (SF-268 CNS) was 3.51 µM and the TGI (SF-268 CNS) was 14.3 µM.

Source: PubChem BioAssay (NCI)
